From patent publication US20100130459A1, “NEUROPROTECTIVE 7-BETA-HYDROXYSTEROIDS” (Hunter-Fleming Limited, priority 2000, published 2010)

How the values were obtained:
[1] = test system: Organotypic hippocampal slice cultures (CA1 cell layer); assay: Hypoxic neuronal damage in organotypic hippocampal slice cultures (PI fluorescence in CA1); format: cell-based, Wistar rat
Procedure: Organotypic hippocampal slice cultures were prepared using the basic method of Pringle et al (1996, 1997) modified as follows:
Wistar rat pups (8-11 days old) were decapitated and the hippocampus rapidly dissected into ice-cold Gey's balanced salt solution supplemented with 4.5 mg/ml glucose. Slices were separated and plated onto Millicell CM culture inserts (4 per well) and maintained at 37′C./5% CO2 for 14 days. Maintenance medium consisted of 25% heat-inactivated horse serum, 25% Hank's balanced salt solution (HBSS) and 50% minimum essential medium with added Earle's salts (MEM) supplemented with 1 mM glutamine and 4.5 mg/ml glucose. Medium was changed every 3-4 days.
Experimental hypoxia was performed as described previously (Pringle e al., 1996; 1997). Briefly, cultures were transferred to serum free medium (SFM—75% MEM, 25% HBSS supplemented with 1 mM glutamine and 4.5 mg/ml glucose) containing 5 μg/ml of the fluorescent exclusion dye propidium iodide (PI). Cultures were allowed to equilibrate in SFM for 60 minutes prior to imaging. PI fluorescence was detected using a Leica inverted microscope fitted with a rhodamine filter set. Any cultures in which PI fluorescence was detected at this stage were excluded from further study. Hypoxia was induced by transferring cultures to SEM (+PI) which had been saturated with 95% N2/5% CO2. Culture plates (without lids) were then sealed into an airtight chamber in which the atmosphere was saturated with 95% N2/5% CO2 by continuously blowing through gas at 10 L/min for ten minutes before being sealed and placed in the incubator for 170 mins (total time of hypoxia was therefore 180 mins). At the end of the hypoxic period cultures were returned to normoxic SFM containing PI and placed back in the incubator for 24 hours.
Neuronal damage was assessed as described previously (Pringle et al., 1996; 1997) using either NIH Image 1.60 running on an Apple IIsi computer or OpenLab 2.1 (Improvision) running on a Macintosh G4/400. Images were captured using a monochrome camera and saved onto optical disk for offline analysis. Light transmission images were captured prior to the addition of drugs, and PI fluorescence images recorded at the end of the 24-hour post-hypoxia recovery period. The area of the CA1 cell layer was determined from the transmission image. The area of PI fluorescence in CA1 was measured using the density slice function within NIH Image or OpenLab, and neuronal damage expressed as the percentage of the CA1 in which PI fluorescence was detected above background.
Steroid compounds were prepared by making an initial 1 mg/ml solution in ethanol and further diluting down in SFM. Compounds were added to the cultures for 45 minutes prior to hypoxia, during the hypoxic episode and during the post-hypoxic recovery period. Control experiments consisted of cultures treated with vehicle alone.

[2] = test system: hippocampal CA1 pyramidal cells; assay: Global cerebral ischemia in rats (4 vessel occlusion), surviving CA1 neurons by Nissl staining; format: in vivo, male Wistar rats
Procedure: Cerebral ischemia was induced by four-vessel-occlusion (4VO) in male Wistar rats (250-280 g). Both vertebral arteries were occluded by electrocauterization in pentobarbital anesthesia (60 mg/kg i.p.). The animals were allowed to recover for 24 hours with free access to water but not food. The next day the carotid arteries were exposed under 2% halothane in 30% oxygen/70% nitrous oxide anesthesia and were occluded for 10 minutes using microvascular claps. Subsequently, both clamps were removed and both arteries were inspected for immediate reperfusion. During the operation and the following 3 hours normothermia of the animals (37.5±0.5° C.) was maintained by using a thermostatically controlled heating blanket connected to a rectal thermometer. For control, in sham-operated animals both vertebral arteries were cauterized in pentobarbital anesthesia and both common carotid arteries were exposed but not clamped under 2% halothane in 30% oxygen/70% nitrous oxide anesthesia the following day. The wound was treated with lidocaine gel and then sutured. The animals were kept under a heating lamp at 30° C. environmental temperature until they regained consciousness.
Seven groups of animals were investigated: • 1. (n=8) steroid compound, 7β-OH EPIA (0.1 mg/kg, i. v. via tail vein, three injections: 15 minutes prior to the induction of ischemia, during ischemia and 5 minutes after reperfusion); • 2. (n=8) steroid compound, 7β-OH EPIA (0.3 mg/kg, i. v. three injections as described in 1.); • 3. (n=8) steroid compound, 7β-OH EPIA (1 mg/kg, i. v., three injections as described in 1.); • 4. (n=8) NBQX (disodium salt, because more water soluble) as reference substance and positive control (TOCRIS, Germany, 30 mg/kg, i. p., three injections as described in 1.); • 5. (n=8) received vehicle (0.9% NaCl, containing 100 μl Ethanol) three injections as described in 1.); • 6. (n=8) ischemia alone; • 7. (n=8) sham operated controls.
The substances were dissolved in 100 μl Ethanol and finally diluted with 0.9% NaCl.
After a survival time of 7 days after ischemia, all animals were perfusion fixed transcardially with 4% paraformaldehyde. The brains were then removed carefully and postfixed in the same fixative for 2 hours. After cryoprotection in 30% sucrose, the brains were rapidly frozen in isopentane and stored at −80° C. Twenty-micrometer cryostat sections comprising the hippocampal formation were Niss1 stained with toluidine blue or NeuroTrace fluorescence.
The severity of neuronal damage in the hippocampal CA1 region after ischemia was evaluated by the number of surviving neurons using Niss1 staining. The mean number of morphologically intact neurons per 400 μm length was calculated in CA1 region for each group. Cell counting was performed in 3-5 serial sections per animal and 6 times 400 μm CA1 area per section using a light microscope equipped with a 20× objective. The data were statistically analyzed by paired Student's t-test. Data were presented as mean±SEM.

[3] = Experiment 1, 100 nM pre-, during and post-hypoxia
[4] = Experiment 1, 100 nM present pre-, during and post-hypoxia, control hypoxia 25.5 ± 6.4
[5] = 30 mg/kg, three injections, 10 min global ischemia, 7 days survival

Q: Which “Reduction of hypoxic damage in CA1 (in words)” value [1, 3] does the source give for `C[C@]12CC[C@H](O)C[C@@H]1C[C@@H](O)[C@@H]1[C@@H]2CC[C@]2(C)C(=O)CC[C@@H]12` [Example 7αOH-EPIA, 7α-Hydroxy-EPIA] here?
A: significantly reduced

Q: What about the “% Damage in CA1” value [1, 4] of the same compound?
A: 4.0 ± 2.9 %

Q: How did the “Reduction in neuronal damage (in words)” value ([1]; Experiment 3, 100 nM pre-, during and post-hypoxia) turn out when `C[C@]12CC[C@H](O)CC1=C[C@H](O)[C@@H]1[C@@H]2CC[C@]2(C)C(=O)CC[C@@H]12` [Example 7βOH-DHEA, 7β-hydroxy-DHEA] was run?
A: large, highly significant, reduction in neuronal damage

Q: And the “% Damage in CA1” value ([1]; Experiment 3, 100 nM pre-, during and post-hypoxia, control hypoxia 29.0 ± 6.2)?
A: 4.2 ± 1.9 %

Q: How did the “Neuroprotective effect (in words, t-test)” value ([2]; 0.1 mg/kg (p=0.01) and 0.3 mg/kg (p=0.0008) i.v.) turn out when `C[C@]12CC[C@H](O)C[C@@H]1C[C@H](O)[C@@H]1[C@@H]2CC[C@]2(C)C(=O)CC[C@@H]12` [Example 7βOH-EPIA, 7β-hydroxyepiandrosterone] was run?
A: highly significant neuroprotective effect

Q: What about the “Neuroprotective effect on CA1 pyramidal cells compared to the sham operated group (FIG. 1C)” value ([2]; 0.1 mg/kg i.v., three injections, 10 min global ischemia, 7 days survival) of the same compound?
A: 74.8%

Q: What about the “Neuroprotective effect on CA1 pyramidal cells compared to the sham operated group (FIG. 1C)” value ([2]; 0.3 mg/kg i.v., three injections, 10 min global ischemia, 7 days survival) of the same compound?
A: 83.9%

Q: And the “Neuroprotection of CA1 pyramidal cells (in words)” value ([2]; 1.0 mg/kg i.v., three injections)?
A: only a tendency to neuroprotection, but the effect was not significant

Q: And the “Behavioral abnormalities of the animals” value ([2]; injected i.v. prior, during and after ischemia, all experiments)?
A: never observed any behavioral abnormalities

Q: And the “Reduction of hypoxic damage in CA1 (in words)” value [1, 3]?
A: significantly reduced

Q: And the “% Damage in CA1” value [1, 4]?
A: 9.0 ± 4.7 %

Q: And the “Neuroprotection against hypoxia (in words)” value ([1]; Experiment 2, 1 nM)?
A: activity was lost

Q: What about the “% Damage in CA1” value ([1]; Experiment 2, 1 nM, control hypoxia 31.9 ± 4.7) of the same compound?
A: 20.6 ± 7.2%

Q: And the “Neuroprotection against hypoxia (in words)” value ([1]; Experiment 2, 10 nM and 100 nM)?
A: significantly neuroprotective

Q: What about the “% Damage in CA1” value ([1]; Experiment 2, 10 nM, control hypoxia 31.9 ± 4.7) of the same compound?
A: 11.9 ± 4.7 %

Q: What about the “% Damage in CA1” value ([1]; Experiment 2, 100 nM, control hypoxia 31.9 ± 4.7) of the same compound?
A: 14.3 ± 5.0 %

Q: Which results are given for `NS(=O)(=O)c1cccc2c1c([N+](=O)[O-])cc1nc(O)c(O)nc12` [NBQX, 2,3-dihydroxy-6-nitro-7-sulfamoyl-benzo(F)quinoxaline, reference compound]?
A: Neuroprotection in CA1 pyramidal cells compared to the ischemia group (in words, t-test) ([2]; 30 mg/kg, three injections): significant (p=0.03) neuroprotection; Neuroprotection compared to the ischemia alone [2, 5]: 47.5%; Protective effect compared to the sham operated animals [2, 5]: 68.5%
